According to patent publication US20230277553A1, “THERAPEUTIC COMPOSITION OF CURE-PRO COMPOUNDS FOR TARGETED DEGRADATION OF BET DOMAIN PROTEINS, AND METHODS OF MAKING AND USAGE” (CORNELL UNIVERSITY, priority 2020, published 2023):
“Also recorded” adds a separate entry of the source.

How the values were obtained:
Format in all cases: cell-based
caspase 3/7 [1] = assay: Caspase-Glo 3/7 assay, Namalwa cells
Method: (§1) Caspase-glo® assay (Promega) was conducted following the manufacturer's recommendations. Cells were seeded at a density of 5000 cells/well in a white 96 well plates (Corning, #3917) in a total volume of 100 μl with respective monomers, combinations of BRD ligands together with E3 ligase ligands or vehicle control treatment. After a 24 h incubation, 100 μl of the […] substrate was added per well and luminescence was read on a Spectramax M5 (Molecular Devices).
Namalwa cells (5×104) were treated for 24 hours with the compounds solubilized in DMSO. FIG. 57 is a bar graph depiction of fold increase of apoptosis assessed via caspase 3/7 activity using the Caspase-glo assay (Promega) described above.
(§2) Molm-13 (FIG. 76A) or Namalwa (FIG. 76B) cells (5×10^4) were treated for 24 hours with the compounds solubilized in DMSO in white 96 well plates (10 nM-10 μM solubilized in DMSO). FIG. 76 is a bar graph depiction of fold increase of apoptosis assessed via caspase 3/7 activity using the Caspase-glo assay (Promega) described above.

caspase 3/7 [2] = assay: Caspase-Glo 3/7 assay, Molm-13 cells
Method: as §1, §2

Molm-13 cells = assay: CellTiter-Glo cell viability, Molm-13 cells; conditions: Molm-13, 24 and 72 h
Method: CellTiter-Glo® 2.0 Cell Viability Assay (Promega) was carried out following the manufacturer's recommendations. Cells were seeded at a density of 1000 cells/well in a white 96 well plates (Corning, #3917) in a total volume of 100 μl with respective monomers, combinations of BRD ligands together with E3 ligase ligands or vehicle control treatment. After a 72 h incubation, 100 ul of the CellTiter-Glo® substrate was added per well and luminescence was read on a Spectramax M5 (Molecular Devices). Dose-response curves were generated using Graphpad Prism software.
Molm-13 cells (1×10^4) were treated for 24 (FIG. 77A) or 72 (FIG. 77B) hours were treated in white 96 well plates with the compounds (10 nM-10 μM solubilized in DMSO). After indicated times cell viability was assessed using the CellTiter-Glo® Luminescent Cell Viability Assay (Promega) and the signal detected on a SpectraMax M5 (Molecular Devices).

BRD4 [3] = target: T1, BRD4 (Homo sapiens, UniProt O60885); assay: CURE-PRO-mediated BRD4 degradation with VHL ligands, Western blot, MCF7 cells; parameters: endogenous in cells; conditions: MCF7, 24 h
Method: (§3) All cell lines were purchased from ATCC or DSMZ and grown at 37° C. with 5% CO2. Human HeLa cells were cultured in complete growth medium (Dulbecco's modified Eagle's medium (DMEM) supplemented with 10% FBS); MCF7 cells were cultured in complete growth medium (Dulbecco's modified Eagle's medium (DMEM) supplemented with 10% FBS and 0.01 mg/ml human recombinant insulin (Sigma Aldrich); Namalwa and MOLM-13 cells were cultured in complete growth medium (RPMI 1640 medium supplemented with 10% FBS); MV-4-11 were cultured in complete growth medium (Iscove's Modified Dulbecco's medium, supplemented with 10% FBS); HCT116 cells were cultured in complete growth medium (McCoy's 5a Medium supplemented with 10% FBS). For cellular degradation of BRD4 studies, cells were seeded in a 12-well plate at 70-80% confluency, allowed to attach overnight, and incubated with the indicated compounds for the indicated time. When indicated, a 15-minute pretreatment with 10 μM pomalidomide, 10 μM VHL298, 10 μM Nutlin3a, 1 μM MG-132 or 1 μM Carfilzomib was performed before the addition of CURE-PROs. For washout studies, after CURE-PRO treatment, media was aspirated and incubated with complete medium for the indicated time before lysis.
HeLa, MCF7, or HCT116 cells (2.5-3×10^6) were treated for 24 hours with the indicated compounds solubilized in DMSO. The cells were washed in ice-cold PBS and were then lysed in RIPA lysis buffer (150 mM NaCl, 5 mM EDTA, 1% NP-40, 0.5% sodium deoxycholate, 0.1% SDS, 50 mM Tris, pH 8.0.) with Roche protease inhibitor complete cocktail and phosphatase inhibitors (10 mM sodium fluoride, 10 mM sodium pyrophosphate, 1 mM sodium orthovanadate and 20 mM β-glycerophosphate). The total protein concentrations were determined by Bradford Protein Assay and 10-20 μg of protein was loaded onto 4-15% Tris-Glycine gradient gels (Biorad). After standard gel electrophoresis, the separated proteins were transferred to PVDF membrane by wet transfer. The immunoblots were then blocked for 1 hour in 5% skim milk in TBST or 5% BSA in TBST, according to manufacturer's instructions, before an overnight incubation at 4° C. with indicated antibodies and membranes. Membranes were then incubated with the appropriate horseradish peroxidase-conjugated secondary antibodies (1:5,000 dilution) for 1 h at room temperature and the bands were visualized using the Clarity Max Western ECL Substrate (Biorad) and the ChemiDoc Imaging System (Biorad). Signal was detected with ECL Western Blotting Substrate (Pierce) and X-ray film processed with a Konica SRX-101 X-ray film processor or captured by Bio-Rad's Chemidoc Imaging system.
MCF7 cells (3×10^6) were treated for 24 h with the compounds solubilized in DMSO. Compounds were added at 100 nM-10 μM. […]

BRD4 [4] = target: T1, BRD4; assay: CURE-PRO-mediated BRD4 degradation with VHL ligands, WES (ProteinSimple), MCF7 cells; parameters: endogenous in cells
Method: as §3
WES Simple analysis was performed on WES system (ProteinSimple-Biotechne) according to the manufacturer's instructions. Total protein concentrations of cell lysates were determined by the Pierce BCA kit (Thermo Fisher). 3 μL of 0.3 μg/μL of the protein lysate was loaded onto a 12- to 230-kDa WES assay plate (ProteinSimple) where 300 nL sample was withdrawn through a capillary, subjected to electrophoretic separation of proteins by size, and followed by the simultaneous, HRP-based detection of proteins using the Anti-Rabbit Detection Module (Proteinsimple: #DM-001). The electropherograms were checked then the automatic peak detection was manually corrected if it was required.
MCF7 cells (3×10^6) were treated for 4-24 hours continually (FIG. 72), or treated for 4h, washed and incubated for a further 4-24 h with the compounds solubilized in DMSO. Compounds were added at 10 μM each. Cells were washed, lysed, and clarified by centrifugation. The total protein concentration was quantified by the BCA method (ThermoFisher Sciences). Standardized protein samples were electrophoresed and imaged as described in the WES Proteinsimple section above. FIG. 69 depicts the CURE-PRO-mediated BRD4 degradation for the BRD-E50 monomer, and VHL ligand, 8305.
MCF7 cells (3×10^6) were treated for 24 hours with the compounds solubilized in DMSO. CURE-PRO monomers were added at 10 μM each and the proteasomal inhibitors at 1 μM. Standardized protein samples were electrophoresed and imaged as described in the WES Proteinsimple section above. FIGS. 73 and 75 depicts the dependence of the proteasome for CURE-PRO-mediated BRD4 degradation.
MCF7 cells (3×10^6) were treated for 24 hours with the compounds solubilized in DMSO. CURE-PRO monomers were added at 10 μM. FIG. 74 depicts the CURE-PRO-mediated BRD4 degradation for the BRD-E50 monomer, and VHL ligand, 8305 combined in a 1:1 ratio after 24 h.

BRD4 [5] = target: T1, BRD4; assay: Summary of BRD4 degradation by CURE-PRO pairs, estimated from Western Blot or WES (Proteinsimple); parameters: endogenous in cells; conditions: Table 3; aromatic 1,2-diol-containing VHL ligand, second drawing (8305)
From the text: A black check mark indicates efficacy of 30% to 70% or higher protein degradation.

CCNC(=O)C[C@@H]1N=C(c2ccc(Cl)cc2)c2cc(B(O)O)ccc2-n2c(C)nnc21 [BRD-E50, ((4S)-6-(4-chlorophenyl)-4-(2-(ethylamino)-2-oxoethyl)-1-methyl-4H-benzo[f][1,2,4]triazolo[4,3-a][1,4]diazepin-8-yl)boronic acid]
Caspase activity, co-treatment with VHL298 (caspase 3/7 [1]): does not increase caspase activity
Caspase 3/7 activation, co-dosed with VHL ligand 8305 (caspase 3/7 [1]; 24 hours, 1:1 with 8305, 10 nM-10 μM): marked caspase activation; also recorded: demonstrates activation of caspase 3/7
Caspase activity, co-treatment with VHL298 (caspase 3/7 [2]; MOLM13): does not increase caspase activity
Caspase 3/7 activation, co-dosed with VHL ligand 8305 (caspase 3/7 [2]; Molm-13, 24 hours, 1:1 with 8305, 10 nM-10 μM): marked caspase activation; also recorded: demonstrates activation of caspase 3/7
Cell viability, co-treatment with VHL298 (Molm-13 cells): decreases levels of cell viability to similar levels of BRD-E50 treatment alone
Loss of cell viability, co-dosed with VHL ligand 8305 (Molm-13 cells; 1:1 with 8305, 10 nM-10 μM): greater loss of cell viability; also recorded: marked loss in cell viability
BRD4 degradation, with VHL ligand 8304 (Western blot) (BRD4 [3]; 1:1 with 8304, 1-10 μM): but not when VHL ligand 8304 is co-incubated; also recorded: no degradation is noted
BRD4 degradation, with VHL ligand 8305 (Western blot) (BRD4 [3]; 1:1 with 8305, 100 nM-10 μM): there is degradation of BRD4; also recorded: marked BRD4 degradation
BRD4 degradation, monomer alone (WES) (BRD4 [4]; MCF7, 10 μM): no degradation of BRD4
BRD4 degradation, with VHL ligand 8304 (WES) (BRD4 [4]; MCF7, 10 μM each): No degradation is noted
BRD4 degradation, with VHL ligand 8305 (WES) (BRD4 [4]; MCF7, 10 μM each, 1:1 with 8305, 4-24 h, with washout where stated): directs degradation of BRD4 as early as 4 h, with sustained degradation 24 h after wash out; also recorded: marked BRD4 degradation after 4h with sustained degradation for up to 8h after drugs are washed out
BRD4 degradation with 8305 after VHL298 preincubation (BRD4 [4]; MCF7, 24 h, 10 μM): No degradation is noted
Degradation of BRD4 in combination with VHL ligand [drawing 397] (BRD4 [5]): ✓ (A black check mark indicates efficacy of 30% to 70% or higher protein degradation)
